Results on one compound are retold here after article PMC8237267 (Journal of Medicinal Chemistry, 2021).

pIC50: −log10 of the molar value.

Experiment [1] has as its system primary T-PLL patient samples. The experiment is described as follows: Ex vivo drug sensitivity (DSS) in primary T-PLL patient samples. In kind it is cell-based, human. The settings on record: p = 0.0007, Wilcoxon test. An excerpt: Primary T-PLL cells were isolated from peripheral blood (PB) of 10 T-PLL patients. All patients were diagnosed according to WHO criteria based on clinical features, immunophenotyping (flow cytometry and histochemisty; including TCL1 expression), and FISH/karyotyping.[71],[72] Samples were obtained from patients under IRB-approved protocols following written informed consent according to the Declaration of Helsinki. Collection and use of patient material have been approved for research purpose by the ethics committee of the University Hospital of Cologne (EudraCT-Nr.: #2008-001421-34 and AZ11-319) and Helsinki (303/13/03/01/2011).
PB mononuclear cells (PBMCs) of T-PLL samples were obtained by density gradient centrifugation (Histopaque; Sigma-Aldrich). All drug screening in primary T-PLL patient samples were conducted as previously described.[34],[73]

The test system of a further experiment is Hut78. The experiment is described as follows: Cytotoxicity assay (Cell Titer-Blue, 72 h). It counts as cell-based. The settings on record: Homo sapiens, CTCL, one representative of three experiments, read-out: IC50 (heat map) Hut78. The method, then: (§1) The PTCL cell lines, KHYG-1, NK-92, SNK6, DERL-2, Mac1, 1305 Myla, Hut78, SU-DHL-1 or T-ALL cell lines SUP-T11, DND-41, and MOLT4 were maintained in RPMI-1640 supplemented with 10% FBS, 0.06 g/L penicillin/0.1 g/L streptomycin (Pen/Strep, Gibco), and 2 mM L-glutamine (Gibco). Culture media of KHYG-1, NK-92, SNK6, and DERL-2 cells was additionally supplemented with 2.5 ng/mL recombinant human IL-2 (ImmunoTools GmbH, Germany). The authenticity of PTCL cell lines was confirmed by analysis of highly polymorphic short tandem repeat loci (STR) using the PowerPlex 16 HS System (Promega; performed by Microsynth AG, Switzerland).
(§2) Cells were plated in 96-well flat-bottom sterile culture plates with low-evaporation lids (Costar #3997). The inhibitors and a vehicle control (0.5% DMSO) were added to the cells following 24 h. After 72 h, Cell Titer-Blue (Promega #G808A) was added to each well (20 μL), and the fluorescence was measured at 560/590 nm using a Cytation S63 spectrophotometer (BioTek) or a GloMax Discover Microplate Reader (Promega, Madison, WI, USA). GraphPad Prism 6.0 (GraphPad Software Inc.) was used to determine the IC50 values.
(The colour change of resazurin is a common sign of viable cells or microbes.)

A further experiment has as its system Mac1. The experiment is described as follows: Cytotoxicity assay (Cell Titer-Blue, 72 h). It counts as cell-based. As to conditions: ALK- ALCL; one representative of three experiments; read-out: IC50 (heat map) Mac1. As to the method:
as §1, §2

The pIC50 is −log10 of the IC50, conventionally taken in molar units. `O=C(NO)c1ccc(CN(C2CC2)S(=O)(=O)c2cc(F)c(F)c(F)c2F)cc1` [Compound 14, 4-(((N-Cyclopropyl-2,3,4,5-tetrafluorophenyl)sulfonamido)methyl)-N-hydroxybenzamide]: the “drug response (DSS) versus vorinostat (SAHA)” value in experiment [1] is “more potent drug response”. The pIC50 was 4.79 in the experiment with Hut78 and 5.02 with Mac1.
